In article PMC7932537, “Quantitative profiling of protease specificity” (PLoS Computational Biology, 2021):

Experiments:
MMP-2 = molecular target: T1, MMP-2 (Homo sapiens, UniProt P08253); assay: K(obs) of individual phage substrates (set of 1369); format: biochemical; conditions: MMP2
T1 sequence (P08253 110-660): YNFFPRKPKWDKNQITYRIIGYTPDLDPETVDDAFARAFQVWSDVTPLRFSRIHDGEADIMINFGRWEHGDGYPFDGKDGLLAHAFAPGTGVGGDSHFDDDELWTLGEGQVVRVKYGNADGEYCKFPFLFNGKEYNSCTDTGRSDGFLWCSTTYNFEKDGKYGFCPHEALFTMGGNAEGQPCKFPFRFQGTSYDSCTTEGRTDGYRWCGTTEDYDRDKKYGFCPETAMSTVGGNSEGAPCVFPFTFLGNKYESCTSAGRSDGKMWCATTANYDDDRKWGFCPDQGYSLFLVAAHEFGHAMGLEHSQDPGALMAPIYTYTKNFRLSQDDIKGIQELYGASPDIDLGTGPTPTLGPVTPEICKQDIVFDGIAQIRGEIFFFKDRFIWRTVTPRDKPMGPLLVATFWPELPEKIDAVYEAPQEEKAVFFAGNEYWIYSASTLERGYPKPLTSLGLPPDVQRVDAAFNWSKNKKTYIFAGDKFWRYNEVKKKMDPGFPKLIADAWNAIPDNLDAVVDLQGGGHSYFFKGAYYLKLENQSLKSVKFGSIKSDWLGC

MMP-9 = MMP-9 (Homo sapiens, UniProt P14780); assay: as above; format: biochemical; conditions: MMP9, individual phage substrates, set of 1369 peptides
[1] = individual phage substrate from the set of 1369 peptides, cleavage position marked by the dash in the sequence
[2] = dash in sequence marks cleavage position
[3] = individual phage substrates, set of 1369 peptides, cleavage position marked by '-' in the sequence
[4] = '-' marks the cleavage position (P1-P1')

MMP-9, sequence (P14780 94-707): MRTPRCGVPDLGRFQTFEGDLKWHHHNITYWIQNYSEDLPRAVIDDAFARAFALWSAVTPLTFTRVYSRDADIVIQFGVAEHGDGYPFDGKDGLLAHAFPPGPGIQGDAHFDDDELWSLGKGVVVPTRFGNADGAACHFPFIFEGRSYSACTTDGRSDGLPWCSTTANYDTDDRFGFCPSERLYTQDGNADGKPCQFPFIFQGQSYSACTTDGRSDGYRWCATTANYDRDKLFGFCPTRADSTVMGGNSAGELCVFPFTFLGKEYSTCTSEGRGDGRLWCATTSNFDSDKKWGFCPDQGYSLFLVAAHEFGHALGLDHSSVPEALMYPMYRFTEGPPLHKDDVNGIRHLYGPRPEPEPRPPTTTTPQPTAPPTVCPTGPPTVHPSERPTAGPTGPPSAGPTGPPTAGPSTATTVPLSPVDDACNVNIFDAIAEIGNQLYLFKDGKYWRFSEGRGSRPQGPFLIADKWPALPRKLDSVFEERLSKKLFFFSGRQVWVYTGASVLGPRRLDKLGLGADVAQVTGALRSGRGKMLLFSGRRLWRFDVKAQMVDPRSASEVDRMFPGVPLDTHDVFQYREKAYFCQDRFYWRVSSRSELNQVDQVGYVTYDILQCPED

Kobs (MMP-2; [1]) | Kobs (MMP-9; [2]) | Kobs (MMP-2; [3]) | Kobs (MMP-9; [4]) | Substance
0 M⁻¹ s⁻¹ | 0 M⁻¹ s⁻¹ | – | – | VSVDQ-LTASG
323.705 M⁻¹ s⁻¹ | 261.974 M⁻¹ s⁻¹ | – | – | FRVEP-LTASG
– | – | 12792.1 M⁻¹ s⁻¹ | 3536.02 M⁻¹ s⁻¹ | TVLRS-LTASG
0 M⁻¹ s⁻¹ | 0 M⁻¹ s⁻¹ | – | – | NTFLH-LTASG
– | – | 9740.44 M⁻¹ s⁻¹ | 0 M⁻¹ s⁻¹ | RHLAK-LTASG
– | – | 8321.48 M⁻¹ s⁻¹ | 10866.7 M⁻¹ s⁻¹ | SGPMH-LRSTA
– | – | 0 M⁻¹ s⁻¹ | 84.609 M⁻¹ s⁻¹ | GSGFQ-LRVFT
0 M⁻¹ s⁻¹ | 0 M⁻¹ s⁻¹ | – | – | GSGHR-LMMGT
– | – | 990.764 M⁻¹ s⁻¹ | 27.918 M⁻¹ s⁻¹ | GYYGE-LLTAS
– | – | 3850.82 M⁻¹ s⁻¹ | 2280.5 M⁻¹ s⁻¹ | GRVLH-LRTAS
– | – | 56.119 M⁻¹ s⁻¹ | 113.394 M⁻¹ s⁻¹ | SYMFS-LTASG
9740.44 M⁻¹ s⁻¹ | 8941.32 M⁻¹ s⁻¹ | – | – | RWPAW-LTASG
– | – | 5889.62 M⁻¹ s⁻¹ | 0 M⁻¹ s⁻¹ | QKYSN-LTASG
– | – | 874.197 M⁻¹ s⁻¹ | 0 M⁻¹ s⁻¹ | GGSGA-LIAND
– | – | 12792.1 M⁻¹ s⁻¹ | 12792.1 M⁻¹ s⁻¹ | SGPSS-LLGTA
– | – | 142.481 M⁻¹ s⁻¹ | 0 M⁻¹ s⁻¹ | ESAQM-ITASG
1071.29 M⁻¹ s⁻¹ | 1513.13 M⁻¹ s⁻¹ | – | – | SGPSR-ILMTA
– | – | 3165.09 M⁻¹ s⁻¹ | 1030.73 M⁻¹ s⁻¹ | GKASN-LYTAS
– | – | 12792.1 M⁻¹ s⁻¹ | 8941.32 M⁻¹ s⁻¹ | SGTWP-LSGTA
5889.62 M⁻¹ s⁻¹ | 951.362 M⁻¹ s⁻¹ | – | – | GPAGH-LSTAS
7015.91 M⁻¹ s⁻¹ | 2837.92 M⁻¹ s⁻¹ | – | – | VEAHA-LTASG
– | – | 12792.1 M⁻¹ s⁻¹ | 12792.1 M⁻¹ s⁻¹ | ISPAT-LTASG
– | – | 323.705 M⁻¹ s⁻¹ | 451.441 M⁻¹ s⁻¹ | SGAFS-LMRTA
– | – | 912.511 M⁻¹ s⁻¹ | 201.585 M⁻¹ s⁻¹ | SGVFN-LAFTA
– | – | 0 M⁻¹ s⁻¹ | 0 M⁻¹ s⁻¹ | SGSWS-LILTA
– | – | 12792.1 M⁻¹ s⁻¹ | 5090.5 M⁻¹ s⁻¹ | IQLAW-LTASG

Kobs (MMP-2; [1]) | Kobs (MMP-9; [2]) | Kobs (MMP-2; [3]) | Kobs (MMP-9; [4]) | Substance
– | – | 484.315 M⁻¹ s⁻¹ | 355.093 M⁻¹ s⁻¹ | GQAWA-LGTAS
– | – | 12792.1 M⁻¹ s⁻¹ | 1283.43 M⁻¹ s⁻¹ | KRAAS-LTASG
– | – | 7815.03 M⁻¹ s⁻¹ | 4082.43 M⁻¹ s⁻¹ | LPTRW-LTASG
– | – | 12792.1 M⁻¹ s⁻¹ | 12792.1 M⁻¹ s⁻¹ | NRPSA-LTASG
– | – | 418.952 M⁻¹ s⁻¹ | 84.609 M⁻¹ s⁻¹ | SGLGM-LATTA
– | – | 0 M⁻¹ s⁻¹ | 27.918 M⁻¹ s⁻¹ | YATWS-MTASG
142.481 M⁻¹ s⁻¹ | 0 M⁻¹ s⁻¹ | – | – | GVSAR-LVTAS
– | – | 0 M⁻¹ s⁻¹ | 990.764 M⁻¹ s⁻¹ | GIAMN-ILTAS
6688.74 M⁻¹ s⁻¹ | 7386.83 M⁻¹ s⁻¹ | – | – | SRPLN-LTASG
517.582 M⁻¹ s⁻¹ | 619.843 M⁻¹ s⁻¹ | – | – | NSHMA-LTASG
0 M⁻¹ s⁻¹ | 0 M⁻¹ s⁻¹ | – | – | SGLAR-LSMTA
3964.21 M⁻¹ s⁻¹ | 201.585 M⁻¹ s⁻¹ | – | – | YNVNY-LTASG
– | – | 12792.1 M⁻¹ s⁻¹ | 12792.1 M⁻¹ s⁻¹ | SGVRA-LISTA
– | – | 12792.1 M⁻¹ s⁻¹ | 0 M⁻¹ s⁻¹ | VFYQS-LTASG
0 M⁻¹ s⁻¹ | 0 M⁻¹ s⁻¹ | – | – | RAGFQ-LTASG
– | – | 4922.1 M⁻¹ s⁻¹ | 12792.1 M⁻¹ s⁻¹ | RSPLM-MTASG
– | – | 12792.1 M⁻¹ s⁻¹ | 8321.48 M⁻¹ s⁻¹ | QVPVF-LTASG
1154.21 M⁻¹ s⁻¹ | 2218.08 M⁻¹ s⁻¹ | – | – | GGSGP-LHQTK
– | – | 12792.1 M⁻¹ s⁻¹ | 1112.44 M⁻¹ s⁻¹ | GGSGF-LMSWM
6396.07 M⁻¹ s⁻¹ | 0 M⁻¹ s⁻¹ | – | – | CLLAS-LTASG
– | – | 12792.1 M⁻¹ s⁻¹ | 7815.03 M⁻¹ s⁻¹ | RVIRH-LTASG
– | – | 8321.48 M⁻¹ s⁻¹ | 4335.13 M⁻¹ s⁻¹ | TSVLA-LTASG
– | – | 0 M⁻¹ s⁻¹ | 418.952 M⁻¹ s⁻¹ | SGSFN-LTMTA
– | – | 231.616 M⁻¹ s⁻¹ | 0 M⁻¹ s⁻¹ | GGSGA-LRVQL
– | – | 4763.33 M⁻¹ s⁻¹ | 10866.7 M⁻¹ s⁻¹ | TKVLW-LTASG
– | – | 323.705 M⁻¹ s⁻¹ | 912.511 M⁻¹ s⁻¹ | GKTWA-LTASG

Kobs (MMP-2; [1]) | Kobs (MMP-9; [2]) | Kobs (MMP-2; [3]) | Kobs (MMP-9; [4]) | Substance
0 M⁻¹ s⁻¹ | 27.918 M⁻¹ s⁻¹ | – | – | GRAWM-MVTAS
– | – | 0 M⁻¹ s⁻¹ | 0 M⁻¹ s⁻¹ | GVLFH-LSTAS
84.609 M⁻¹ s⁻¹ | 0 M⁻¹ s⁻¹ | – | – | ARVGV-LTASG
– | – | 690.17 M⁻¹ s⁻¹ | 551.253 M⁻¹ s⁻¹ | EVSQH-LTASG
10866.7 M⁻¹ s⁻¹ | 10866.7 M⁻¹ s⁻¹ | – | – | KSPAY-LTASG
142.481 M⁻¹ s⁻¹ | 0 M⁻¹ s⁻¹ | – | – | GGSGN-LVRVR
0 M⁻¹ s⁻¹ | 0 M⁻¹ s⁻¹ | – | – | SGVHR-LSYTA
– | – | 2038.8 M⁻¹ s⁻¹ | 3438.54 M⁻¹ s⁻¹ | YFARQ-LTASG
– | – | 484.315 M⁻¹ s⁻¹ | 1239.69 M⁻¹ s⁻¹ | SGGSG-LRMWI
84.609 M⁻¹ s⁻¹ | 84.609 M⁻¹ s⁻¹ | – | – | GSGMA-LTHIT
0 M⁻¹ s⁻¹ | 0 M⁻¹ s⁻¹ | – | – | SGARG-IKLTA
– | – | 484.315 M⁻¹ s⁻¹ | 2280.5 M⁻¹ s⁻¹ | GVAKP-LWTAS
– | – | 0 M⁻¹ s⁻¹ | 27.918 M⁻¹ s⁻¹ | GKVHQ-MLTAS
0 M⁻¹ s⁻¹ | 27.918 M⁻¹ s⁻¹ | – | – | GSGWR-LTVGT
– | – | 0 M⁻¹ s⁻¹ | 386.839 M⁻¹ s⁻¹ | SGIWK-LTATA
84.609 M⁻¹ s⁻¹ | 0 M⁻¹ s⁻¹ | – | – | GSGLA-LKMGT
7815.03 M⁻¹ s⁻¹ | 0 M⁻¹ s⁻¹ | – | – | FMYSH-LTASG
– | – | 8321.48 M⁻¹ s⁻¹ | 1373.05 M⁻¹ s⁻¹ | RRTAW-LTASG
– | – | 619.843 M⁻¹ s⁻¹ | 2761.81 M⁻¹ s⁻¹ | EPIYN-LTASG
– | – | 12792.1 M⁻¹ s⁻¹ | 12792.1 M⁻¹ s⁻¹ | YLPRA-ITASG
– | – | 1030.73 M⁻¹ s⁻¹ | 5667.28 M⁻¹ s⁻¹ | SGAFH-ILGTA
0 M⁻¹ s⁻¹ | 323.705 M⁻¹ s⁻¹ | – | – | GSGFA-LVAKT
0 M⁻¹ s⁻¹ | 113.394 M⁻¹ s⁻¹ | – | – | TGSWP-LTASG
3165.09 M⁻¹ s⁻¹ | 171.876 M⁻¹ s⁻¹ | – | – | TTSAS-LTASG
12792.1 M⁻¹ s⁻¹ | 9740.44 M⁻¹ s⁻¹ | – | – | TLPHS-LTASG
– | – | 5667.28 M⁻¹ s⁻¹ | 5889.62 M⁻¹ s⁻¹ | SGPMG-MRNTA

Kobs (MMP-2; [1]) | Kobs (MMP-9; [2]) | Kobs (MMP-2; [3]) | Kobs (MMP-9; [4]) | Substance
– | – | 9740.44 M⁻¹ s⁻¹ | 7815.03 M⁻¹ s⁻¹ | SAVRA-LTASG
517.582 M⁻¹ s⁻¹ | 355.093 M⁻¹ s⁻¹ | – | – | GVINQ-LRTAS
– | – | 0 M⁻¹ s⁻¹ | 323.705 M⁻¹ s⁻¹ | GQVFR-LITAS
– | – | 0 M⁻¹ s⁻¹ | 0 M⁻¹ s⁻¹ | QRMDL-LTASG
– | – | 8941.32 M⁻¹ s⁻¹ | 7815.03 M⁻¹ s⁻¹ | PGVRF-LTASG
1816.46 M⁻¹ s⁻¹ | 113.394 M⁻¹ s⁻¹ | – | – | WLYAH-YTASG
– | – | 5090.5 M⁻¹ s⁻¹ | 201.585 M⁻¹ s⁻¹ | IGYAW-MTASG
0 M⁻¹ s⁻¹ | 171.876 M⁻¹ s⁻¹ | – | – | SGVMR-LVVTA
– | – | 12792.1 M⁻¹ s⁻¹ | 9740.44 M⁻¹ s⁻¹ | SIPNA-LTASG
– | – | 3741.87 M⁻¹ s⁻¹ | 10866.7 M⁻¹ s⁻¹ | SGPHW-LNATA
– | – | 10866.7 M⁻¹ s⁻¹ | 12792.1 M⁻¹ s⁻¹ | GRPMN-LRTAS
– | – | 12792.1 M⁻¹ s⁻¹ | 9740.44 M⁻¹ s⁻¹ | GSPVW-LRTAS
– | – | 3637.04 M⁻¹ s⁻¹ | 2218.08 M⁻¹ s⁻¹ | GRALA-MQTAS
– | – | 7386.83 M⁻¹ s⁻¹ | 386.839 M⁻¹ s⁻¹ | EQLAN-MTASG
– | – | 0 M⁻¹ s⁻¹ | 0 M⁻¹ s⁻¹ | SGINM-LTLTA
– | – | 690.17 M⁻¹ s⁻¹ | 0 M⁻¹ s⁻¹ | GISMY-LTASG
– | – | 7015.91 M⁻¹ s⁻¹ | 5090.5 M⁻¹ s⁻¹ | YRVAF-LTASG
– | – | 6688.74 M⁻¹ s⁻¹ | 3964.21 M⁻¹ s⁻¹ | DRIRH-LTASG
– | – | 10866.7 M⁻¹ s⁻¹ | 323.705 M⁻¹ s⁻¹ | IFINF-LTASG
1561.44 M⁻¹ s⁻¹ | 2476.66 M⁻¹ s⁻¹ | – | – | GLAYS-LQTAS
0 M⁻¹ s⁻¹ | 0 M⁻¹ s⁻¹ | – | – | GPAQD-LYTAS
– | – | 12792.1 M⁻¹ s⁻¹ | 9740.44 M⁻¹ s⁻¹ | VVAVS-LTASG
– | – | 2916.17 M⁻¹ s⁻¹ | 3964.21 M⁻¹ s⁻¹ | KAALP-LTASG
0 M⁻¹ s⁻¹ | 0 M⁻¹ s⁻¹ | – | – | SGHMH-MRSTA

Substance | Kobs (MMP-2; [1]) | Kobs (MMP-9; [2]) | Kobs (MMP-2; [3]) | Kobs (MMP-9; [4])
QRVLP-LTASG | 6396.07 M⁻¹ s⁻¹ | 2038.8 M⁻¹ s⁻¹ | – | –
